PubChem BioAssay (NCI)
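Results reflect a 48-hour exposure of cells in 96-well plates to compound at five concentrations. The concentration for full growth arrest is given as TGI.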

Key:
Assay in all cases: NCI tumour cell line growth inhibition, 48 h
MDA-MB-231 breast = test system: MDA-MB-231 breast
EKVX NSCLC = test system: EKVX NSCLC
MDA-N = test system: MDA-N
UO-31 renal = test system: UO-31 renal
K-562 leukemia = test system: K-562 leukemia
SK-MEL-2 melanoma = test system: SK-MEL-2 melanoma
CAKI-1 renal = test system: CAKI-1 renal
HCT-116 colon = test system: HCT-116 colon
UACC-62 melanoma = test system: UACC-62 melanoma
SK-MEL-28 melanoma = test system: SK-MEL-28 melanoma
NCI-H226 lung = test system: NCI-H226 lung
HCC-2998 colon = test system: HCC-2998 colon
NCI-H460 lung = test system: NCI-H460 lung
MALME-3M melanoma = test system: MALME-3M melanoma
LOX IMVI melanoma = test system: LOX IMVI melanoma
SN12C renal = test system: SN12C renal
SK-OV-3 ovarian = test system: SK-OV-3 ovarian
SNB-75 CNS = test system: SNB-75 CNS
T-47D breast = test system: T-47D breast
HL-60(TB) leukemia = test system: HL-60(TB) leukemia
HT29 colon = test system: HT29 colon
OVCAR-3 ovarian = test system: OVCAR-3 ovarian
A498 renal = test system: A498 renal
OVCAR-4 ovarian = test system: OVCAR-4 ovarian
CCRF-CEM leukemia = test system: CCRF-CEM leukemia
IGROV1 ovarian = test system: IGROV1 ovarian
NCI-H23 lung = test system: NCI-H23 lung
U251 CNS = test system: U251 CNS
SW-620 colon = test system: SW-620 colon
SK-MEL-5 melanoma = test system: SK-MEL-5 melanoma
UACC-257 melanoma = test system: UACC-257 melanoma
MDA-MB-435 = test system: MDA-MB-435
RPMI-8226 leukemia = test system: RPMI-8226 leukemia
TK-10 renal = test system: TK-10 renal
NCI/ADR-RES ovarian = test system: NCI/ADR-RES ovarian
COLO 205 colon = test system: COLO 205 colon
OVCAR-8 ovarian = test system: OVCAR-8 ovarian
DU-145 prostate = test system: DU-145 prostate
M14 melanoma = test system: M14 melanoma
HCT-15 colon = test system: HCT-15 colon
MCF7 breast = test system: MCF7 breast
SF-268 CNS = test system: SF-268 CNS
PC-3 prostate = test system: PC-3 prostate
BT-549 breast = test system: BT-549 breast
SR leukemia = test system: SR leukemia
A549 NSCLC = test system: A549 NSCLC
OVCAR-5 ovarian = test system: OVCAR-5 ovarian
SF-295 CNS = test system: SF-295 CNS
HOP-62 NSCLC = test system: HOP-62 NSCLC
SNB-19 CNS = test system: SNB-19 CNS
HOP-92 NSCLC = test system: HOP-92 NSCLC
KM12 colon = test system: KM12 colon
786-0 renal = test system: 786-0 renal
ACHN renal = test system: ACHN renal
MOLT-4 leukemia = test system: MOLT-4 leukemia
NCI-H522 lung = test system: NCI-H522 lung
HS 578T breast = test system: HS 578T breast
RXF 393 renal = test system: RXF 393 renal
SF-539 CNS = test system: SF-539 CNS

In the case of `Cn1c(C(O)C2(c3cccnc3)SCCCS2)cc2ccccc21` (stereo not drawn), the TGI (MDA-MB-231 breast) is reported as over 100 µM, the TGI (EKVX NSCLC) is reported as over 100 µM and the TGI (MDA-N) is reported as over 100 µM. The TGI (UO-31 renal) was over 100 µM, the TGI (K-562 leukemia) was over 100 µM and the TGI (SK-MEL-2 melanoma) was over 100 µM. It also gave a TGI (CAKI-1 renal) of over 100 µM, a TGI (HCT-116 colon) of over 100 µM and a TGI (UACC-62 melanoma) of over 100 µM. It also gave a TGI (SK-MEL-28 melanoma) of over 100 µM, a TGI (NCI-H226 lung) of over 100 µM and a TGI (HCC-2998 colon) of over 100 µM. It also gave a TGI (NCI-H460 lung) of over 100 µM, a TGI (MALME-3M melanoma) of over 100 µM and a TGI (LOX IMVI melanoma) of over 100 µM. The TGI (SN12C renal) was over 100 µM, the TGI (SK-OV-3 ovarian) was over 100 µM and the TGI (SNB-75 CNS) was over 100 µM. For the same molecule, the TGI (T-47D breast) was over 100 µM, the TGI (HL-60(TB) leukemia) was over 100 µM and the TGI (HT29 colon) was over 100 µM. For the same molecule, the TGI (OVCAR-3 ovarian) was over 100 µM, the TGI (A498 renal) was over 100 µM and the TGI (OVCAR-4 ovarian) was over 100 µM. For the same molecule, the TGI (CCRF-CEM leukemia) was over 100 µM, the TGI (IGROV1 ovarian) was over 100 µM and the TGI (NCI-H23 lung) was over 100 µM. It also gave a TGI (U251 CNS) of over 100 µM, a TGI (SW-620 colon) of over 100 µM and a TGI (SK-MEL-5 melanoma) of over 100 µM. The TGI (UACC-257 melanoma) was over 100 µM, the TGI (MDA-MB-435) was over 100 µM and the TGI (RPMI-8226 leukemia) was over 100 µM. For the same molecule, the TGI (TK-10 renal) was over 100 µM, the TGI (NCI/ADR-RES ovarian) was over 100 µM and the TGI (COLO 205 colon) was over 100 µM. For the same molecule, the TGI (OVCAR-8 ovarian) was over 100 µM, the TGI (DU-145 prostate) was over 100 µM and the TGI (M14 melanoma) was over 100 µM. The TGI (HCT-15 colon) was over 100 µM, the TGI (MCF7 breast) was over 100 µM and the TGI (SF-268 CNS) was over 100 µM. The TGI (PC-3 prostate) was over 100 µM, the TGI (BT-549 breast) was over 100 µM and the TGI (SR leukemia) was over 100 µM. For the same molecule, the TGI (A549 NSCLC) was over 100 µM, the TGI (OVCAR-5 ovarian) was over 100 µM and the TGI (SF-295 CNS) was over 100 µM. It also gave a TGI (HOP-62 NSCLC) of over 100 µM, a TGI (SNB-19 CNS) of over 100 µM and a TGI (HOP-92 NSCLC) of over 100 µM. It also gave a TGI (KM12 colon) of over 100 µM, a TGI (786-0 renal) of over 100 µM and a TGI (ACHN renal) of over 100 µM.

`C[C@]12CC[C@H](O)CC1=CC[C@@H]1C2CC[C@]2(C)c3n[nH]nc3CC12` (stereo partly drawn) was tested, and the TGI (MOLT-4 leukemia) was over 100 µM, the TGI (MDA-MB-231 breast) was over 100 µM and the TGI (EKVX NSCLC) was over 100 µM. For the same molecule, the TGI (MDA-N) was over 100 µM, the TGI (UO-31 renal) was over 100 µM and the TGI (K-562 leukemia) was over 100 µM. The TGI (CAKI-1 renal) was over 100 µM, the TGI (HCT-116 colon) was over 100 µM and the TGI (UACC-62 melanoma) was over 100 µM. It also gave a TGI (SK-MEL-28 melanoma) of over 100 µM, a TGI (NCI-H226 lung) of over 100 µM and a TGI (HCC-2998 colon) of over 100 µM. The TGI (NCI-H460 lung) was over 100 µM, the TGI (MALME-3M melanoma) was over 100 µM and the TGI (SN12C renal) was over 100 µM. It also gave a TGI (SK-OV-3 ovarian) of over 100 µM, a TGI (SNB-75 CNS) of over 100 µM and a TGI (T-47D breast) of over 100 µM. For the same molecule, the TGI (HL-60(TB) leukemia) was over 100 µM, the TGI (HT29 colon) was over 100 µM and the TGI (OVCAR-3 ovarian) was over 100 µM. The TGI (A498 renal) was over 100 µM, the TGI (OVCAR-4 ovarian) was over 100 µM and the TGI (CCRF-CEM leukemia) was over 100 µM. The TGI (IGROV1 ovarian) was over 100 µM, the TGI (NCI-H23 lung) was over 100 µM and the TGI (U251 CNS) was over 100 µM. The TGI (NCI-H522 lung) was over 100 µM, the TGI (SW-620 colon) was over 100 µM and the TGI (SK-MEL-5 melanoma) was over 100 µM. It also gave a TGI (UACC-257 melanoma) of over 100 µM, a TGI (MDA-MB-435) of over 100 µM and a TGI (TK-10 renal) of over 100 µM. It also gave a TGI (COLO 205 colon) of over 100 µM, a TGI (OVCAR-8 ovarian) of over 100 µM and a TGI (DU-145 prostate) of over 100 µM. For the same molecule, the TGI (M14 melanoma) was over 100 µM, the TGI (HS 578T breast) was over 100 µM and the TGI (MCF7 breast) was over 100 µM. For the same molecule, the TGI (RXF 393 renal) was over 100 µM, the TGI (SF-268 CNS) was over 100 µM and the TGI (SF-539 CNS) was over 100 µM. For the same molecule, the TGI (PC-3 prostate) was over 100 µM, the TGI (BT-549 breast) was over 100 µM and the TGI (SR leukemia) was 96.4 µM. For the same molecule, the TGI (A549 NSCLC) was over 100 µM, the TGI (OVCAR-5 ovarian) was over 100 µM and the TGI (SF-295 CNS) was over 100 µM. The TGI (HOP-62 NSCLC) was over 100 µM, the TGI (SNB-19 CNS) was over 100 µM and the TGI (HOP-92 NSCLC) was over 100 µM. The TGI (KM12 colon) was over 100 µM, the TGI (786-0 renal) was over 100 µM and the TGI (ACHN renal) was over 100 µM.
